Source: ChEMBL document CHEMBL1142471, “Antioxidant capacity of human blood plasma and human urine: simultaneous evaluation of the ORAC index and ascorbic acid concentration employing pyrogallol red as probe” (Bioorg Med Chem, 2008)

Experiments:
Format in all cases: functional
[1] = Antioxidant activity assessed as oxygen radical absorbance capacity index value by fluorescein protection assay
[2] = Antioxidant activity assessed as oxygen radical absorbance capacity index value at 5 uM by pyrogallol red protection assay
[3] = Antioxidant activity assessed as oxygen radical absorbance capacity index value by pyrogallol red protection assay

SMILES	Activity [1]	Activity [2]	Activity [3]
O=C1O[C@H]([C@@H](O)CO)C(O)=C1O	0.95	9.7	–
Oc1nc(O)c2nc(O)[nH]c2n1	0.72	–	0.02
N[C@@H](CCC(=O)N[C@@H](CS)C(=O)NCC(=O)O)C(=O)O	0.62	–	–
